Reference: patent US20260137701A1, “CHOLESTENOIC ACID (CA) AND A SULFATED DERIVATIVE THEREOF, 3[BETA]-SULFATE-5-CHOLESTENOIC ACID (CA3S), AS ENDOGENOUS EPIGENETIC REGULATORS” (priority 2022, published 2026)
“And” between values parts separate entries of the source, which are not always exact repeats. Equal entries are not always repeated.

Test system: HepG-2 cells
Test: Whole genome bisulfite sequencing (WGBS), differentially methylated regions
Type: cell-based, human
Settings: for number of DMRs, whole genome, hyper-methylated / number of DMRs, whole genome, hypo-methylated / number of DMRs, whole genome, total: 20 μM CA vs vehicle
Protocol: After culturing HepG-2 cells in DMEM medium with HG for 72 hours followed by treating with 20 μM CA for 0, 3, 6, 12, and 24 hours, genomic DNA from 5×10^7 cells were extracted using QIAamp® DNA Mini Kit (QIAGEN, Hilden, Germany). Each sample, 6 μg, was sent to CD Genomics Co., Ltd (New York, USA) for analysis of WGBS. Total RNA was isolated using the Promega SV total RNA isolation system (Madison, WI, USA) with DNase treatment. Each sample, 2 μg, were sent to CD Genomics Co., Ltd (New York, USA) for analysis of RNA sequencing. The same samples, 2 μg, was used for the first-strand cDNA synthesis as recommended by the manufacturer (Invitrogen, Carlsbad, CA). RT-qPCR was performed using SYBR Green as the indicator on ABI 7500 Fast Real-Time PCR System (Applied Biosystems, Foster City, CA). Amplifications of j-actin or GAPDH were used as internal controls. Relative messenger RNA (mRNA) expression was quantified with the comparative cycle threshold (Ct) method using a sutiable primer set and was expressed as 2-ΔΔCt as described previously.
Each sample, 1 μg of genomic DNA was fragmented by sonication to a mean size of approximately 200-400 bp, and subsequently used for WGBS library construction using Acegen Bisulfite-Seq Library Prep Kit (Acegen) following the manufacturer's instructions. The methylated adapter-ligated DNAs were purified using 0.8×Agencourt AMPure™ XP magnetic beads and subjected to bisulfite conversion by ZYMO EZ DNA Methylation-Gold™ Kit (Zymo Research Corporation, CA, USA). The converted DNAs were then amplified using 25 μl KAPA HiFi™ HotStart Uracil+ ReadyMix (2×) and 8-bp index primers with a final concentration of 1 μM each. The constructed WGBS libraries were then analyzed by Agilent 2100 Bioanalyzer and quantified by a Qubit fluorometer with Quant-iT™ dsDNA HS Assay Kit (Invitrogen), and finally sequenced on Illumina® Hiseq X™ Ten sequencer. After the preparation of the library, Qubit 2.0 and Agilent 2100 were used respectively to detect the concentration of the library and the Insert Size, and the effective concentration (>2 nM) of the library was quantitatively determined by Q-PCR to ensure the library quality.
Samples were sequenced using the Illumina® HiSeq sequencing platform. Raw data generated on the sequencing platform contained a small percentage of low-quality data, which was then filtered to get high-quality data. Bsmap software was used to perform alignments of bisulfite-treated reads to a reference genome (GRCh37). Metilene software was used to identify differentially methylated regions (DMRs). DAVID software (website located at david.ncifcrf.gov/) was used to test the statistical enrichment of DMR related genes in the Gene Ontology (GO) and Kyoto Encyclopedia of Genes and Genomes (KEGG) pathways.

## CC(CCC[C@@H](C)[C@H]1CC[C@H]2[C@@H]3CC=C4C[C@@H](O)CC[C@]4(C)[C@H]3CC[C@]12C)C(=O)O (stereo partly drawn) [CA, 3β-hydroxy-5-cholestenoic acid]
3 hours
  number of DMRs, whole genome, hyper-methylated: 11,818
  number of DMRs, whole genome, hypo-methylated: 215,747
  number of DMRs, whole genome, total: 227,565
6 hours
  number of DMRs, whole genome, hyper-methylated: 10,537
  number of DMRs, whole genome, hypo-methylated: 497,685
  number of DMRs, whole genome, total: 508,222
12 hours
  number of DMRs, whole genome, hyper-methylated: 14,658
  number of DMRs, whole genome, hypo-methylated: 544,916
  number of DMRs, whole genome, total: 559,574
24 hours
  number of DMRs, whole genome, hyper-methylated: 8,808
  number of DMRs, whole genome, hypo-methylated: 679,051
  number of DMRs, whole genome, total: 687,859
20 μM CA, 3 h
  DMR (Methylation %) ADRA1A promoter region: −30.28%
  DMR (Methylation %) ADRA1B promoter region: 0%
  DMR (Methylation %) ADRA1 promoter region: −30.28%
  DMR (Methylation %) BCL6 promoter region: −20.42%
  DMR (Methylation %) CACNA1D promoter region: −55.12%
  DMR (Methylation %) CALML3 promoter region: −27.06% and −27.05%
  DMR (Methylation %) CALML4 promoter region: −21.08%
  DMR (Methylation %) CAMKK2 promoter region: 0%
  DMR (Methylation %) COX7B promoter region: −30.9%
  DMR (Methylation %) COX8A promoter region: −25.87%
  DMR (Methylation %) CPT1C promoter region: −18.8%
  DMR (Methylation %) CREB3L4 promoter region: 0%
  DMR (Methylation %) CYP1A1 promoter region: −30.07%
  DMR (Methylation %) ESR2 promoter region: 0%
  DMR (Methylation %) FBP1 promoter region: 0%
  DMR (Methylation %) FGF1 promoter region: −54.6%
  DMR (Methylation %) FGF8 promoter region: −19.97%
  DMR (Methylation %) FGFR2 promoter region: −26.28%
  DMR (Methylation %) LDHA promoter region: −29.00%
  DMR (Methylation %) LDHAL6A promoter region: 0%
  DMR (Methylation %) LDHC promoter region: −20.18%
  DMR (Methylation %) LEP promoter region: 0%
  DMR (Methylation %) MIR29A promoter region: −15.46%
  DMR (Methylation %) MIRLET7B promoter region: 0%
  DMR (Methylation %) MTOR promoter region: −20.34%
  DMR (Methylation %) NTRK3 promoter region: 0%
  DMR (Methylation %) PDHA2 promoter region: 0%
  DMR (Methylation %) PDHB promoter region: −21.86%
  DMR (Methylation %) PHKG1 promoter region: −15.73%
  DMR (Methylation %) PPARG promoter region: 0%
  DMR (Methylation %) SDHA promoter region: 0%
  DMR (Methylation %) SDHB promoter region: 0%
  DMR (Methylation %) SPHK2 promoter region: 0%
  DMR (Methylation %) UQCRC1 promoter region: −23.76%
  DMR (Methylation %) VDAC2 promoter region: −27.41%
20 μM CA, 3 hours
  number of DMRs in promoter region, hyper-methylated: 2,323
  number of DMRs in promoter region, hypo-methylated: 12,431
  number of DMRs in promoter region, total: 14,754
20 μM CA, 6 h
  DMR (Methylation %) ADRA1A promoter region: −41.25%
  DMR (Methylation %) ADRA1B promoter region: −33.89%
  DMR (Methylation %) ADRA1 promoter region: −41.25%
  DMR (Methylation %) BCL6 promoter region: −43.30%
  DMR (Methylation %) CACNA1D promoter region: −69.06% and −69.10%
  DMR (Methylation %) CALML3 promoter region: −47.29%
  DMR (Methylation %) CALML4 promoter region: −31.79%
  DMR (Methylation %) CAMKK2 promoter region: −37.97%
  DMR (Methylation %) COX7B promoter region: −83.31%
  DMR (Methylation %) COX8A promoter region: −35.3%
  DMR (Methylation %) CPT1A promoter region: −41.69%
  DMR (Methylation %) CPT1C promoter region: −34.41%
  DMR (Methylation %) CREB3L4 promoter region: −36.38%
  DMR (Methylation %) CYP1A1 promoter region: −55.38%
  DMR (Methylation %) ESR2 promoter region: −33.80%
  DMR (Methylation %) FBP1 promoter region: −39.18%
  DMR (Methylation %) FGF1 promoter region: −37.79%
  DMR (Methylation %) FGF8 promoter region: −53.29%
  DMR (Methylation %) FGFR2 promoter region: −47.13%
  DMR (Methylation %) LDHA promoter region: −35.80%
  DMR (Methylation %) LDHAL6A promoter region: −38.96%
  DMR (Methylation %) LDHC promoter region: −31.45%
  DMR (Methylation %) LEP promoter region: −35.18%
  DMR (Methylation %) MIR29A promoter region: −32.98%
  DMR (Methylation %) MIRLET7B promoter region: −34.85%
  DMR (Methylation %) MTOR promoter region: −37.3%
  DMR (Methylation %) NTRK3 promoter region: −49.89%
  DMR (Methylation %) PDHA2 promoter region: −39.34%
  DMR (Methylation %) PDHB promoter region: −42.31%
  DMR (Methylation %) PHKG1 promoter region: −41.81%
  DMR (Methylation %) PPARG promoter region: −37.32%
  DMR (Methylation %) SDHA promoter region: −37.82%
  DMR (Methylation %) SDHB promoter region: −39.54%
  DMR (Methylation %) SPHK2 promoter region: −60.87%
